# From PMC4232510, “Identification of Functionally Important Residues of the Rat P2X4 Receptor by Alanine Scanning Mutagenesis of the Dorsal Fin and Left Flipper Domains” (PLoS ONE, 2014)
# Where two headings read alike, the source gives them in different places.
# What was measured:
# P2X3R S275A = system: P2X3R S275A; set-up: method as in PMID 21879712; key: n.f.: non-functional mutants; ↑: mutant with significant increased EC50 in comparison to WT (values represent fold increase); ≈: close to WT receptor; D: affected time-constant of the desensitizing current response; settings: cited from earlier work
# P2X4R L214A = settings: cited from earlier work
# rP2X4R N293A mutant = target: T1, rP2X4R N293A mutant (Rattus norvegicus, UniProt P51577, N293A); test: whole-cell patch clamp, HEK293T cells expressing mutant; type: cell-based
# T1 construct: expressed in transfected cells; host or cells: HEK293T
# rP2X4R R203A mutant = target: T2, rP2X4R R203A mutant (Rattus norvegicus, UniProt P51577, R203A); test: as above; type: cell-based
# T2 construct: expressed in transfected cells; host or cells: HEK293T
# P2X1R P287C = system: P2X1R P287C; set-up: method as in PMID 17428985; key: n.f.: non-functional mutants; ↑: mutant with significant increased EC50 in comparison to WT (values represent fold increase); ≈: close to WT receptor; D: affected time-constant of the desensitizing current response; settings: cited from earlier work
# rP2X4R N204A mutant = target: T3, rP2X4R N204A mutant (Rattus norvegicus, UniProt P51577, N204A); type: cell-based
# T3 construct: expressed in transfected cells; host or cells: HEK293T
# Description: To express the recombinant channels, we used human embryonic kidney (HEK) 293T cells (American Type Culture Collection, Rockville, MD, USA) grown in Dulbecco modified Eagle’s medium (Thermo Fisher Scientific, Waltham, MA) supplemented with 10% fetal bovine serum (Sigma-Aldrich, St Louis, MO), 50 U/ml penicillin and 50 µg/ml streptomycin (both Thermo Fisher Scientific, Waltham, MA) in a humidified 5% CO2 and 95% air at 37°C. Cells were cultured in 75 cm^2 plastic culture flasks (NUNC, Rochester, NY) for 36–72 hours until reaching 80–95% confluence. Before the day of transfection, the cells were plated on 35 mm culture dishes (Sarstedt, Newton, NC) and incubated at 37°C for at least 24 h. […] Transfected cells were identified by the fluorescence signal of EGFP using the Olympus IX71 inverted research microscope with fluorescence illuminators (Model IX71; Olympus, Melville, NY). […]
# ATP-induced currents were recorded from whole cells clamped to −60 mV using an Axopatch 200B patch-clamp amplifier (Axon Instruments, Union City, CA). […] Potency of ATP was measured based on the activation of naïve (not previously stimulated) receptors using a short (2–5 s) application of various concentrations of ATP. […] One or two responses were recorded from one cell, if not otherwise stated, and responses from different cells were pooled. […]
# P2X1R G288A = system: P2X1R G288A; set-up: key: n.f.: non-functional mutants; ↑: mutant with significant increased EC50 in comparison to WT (values represent fold increase); ≈: close to WT receptor; D: affected time-constant of the desensitizing current response; settings: cited from earlier work
# P2X2R D277A = system: P2X2R D277A; set-up: method as in PMID 18194442; key: n.f.: non-functional mutants; ↑: mutant with significant increased EC50 in comparison to WT (values represent fold increase); ≈: close to WT receptor; D: affected time-constant of the desensitizing current response; settings: cited from earlier work
# P2X4R N287A = system: P2X4R N287A; set-up: method as in PMID 17663752, PMID 15632318; key: n.f.: non-functional mutants; ↑: mutant with significant increased EC50 in comparison to WT (values represent fold increase); ≈: close to WT receptor; D: affected time-constant of the desensitizing current response; settings: cited from earlier work
# [1] = decay after removal of 1 or 3 µM ATP, 3 µM IVM
# T3 sequence (P51577 whole entry N204A): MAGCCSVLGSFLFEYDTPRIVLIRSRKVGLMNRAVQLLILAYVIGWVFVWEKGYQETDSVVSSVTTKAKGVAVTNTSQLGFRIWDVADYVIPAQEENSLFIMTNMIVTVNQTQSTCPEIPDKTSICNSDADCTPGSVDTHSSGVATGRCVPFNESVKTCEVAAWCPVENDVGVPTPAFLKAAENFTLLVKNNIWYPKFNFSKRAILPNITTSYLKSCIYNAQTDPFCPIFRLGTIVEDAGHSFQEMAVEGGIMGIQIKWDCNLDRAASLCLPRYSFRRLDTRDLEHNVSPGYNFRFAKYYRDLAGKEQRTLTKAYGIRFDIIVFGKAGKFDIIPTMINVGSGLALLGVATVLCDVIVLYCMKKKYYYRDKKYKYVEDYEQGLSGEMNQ
# T2 sequence (P51577 whole entry R203A): as the sequence (P51577 whole entry N204A) above, with R203A, A204N counted along it
# T1 sequence (P51577 whole entry N293A): as the sequence (P51577 whole entry N204A) above, with A204N, N293A counted along it
structure (smiles),measurement,setting,value
Nc1ncnc2c1ncn2[C@@H]1O[C@H](COP(=O)(O)OP(=O)(O)OP(=O)(O)O)[C@@H](O)[C@H]1O [ATP],change in desensitization,P2X3R S275A,S275A: D[55]
same,fold increase of EC50 for ATP in comparison to WT,P2X4R L214A; ref 41,8 x
same,fold increase of EC50 for ATP in comparison to WT,P2X4R L214A; ref 49,3 x
same,Imax+IVM,rP2X4R N293A mutant; ATP after 3 µM IVM 4-6 min,2.0 ±0.5 nA
same,τoff +IVM,rP2X4R N293A mutant; [1],2.8 ± 0.2 s
same,Imax+IVM,rP2X4R R203A mutant; ATP after 3 µM IVM 4-6 min,2.9 ± 0.6 nA
same,τoff +IVM,rP2X4R R203A mutant; [1],4.6 ± 0.3 s
same,change in EC50 for ATP,P2X1R P287C,P287C: ≈[9]
same,Imax+IVM,rP2X4R N204A mutant; ATP after 3 µM IVM 4-6 min,2.5 ± 0.4 nA
same,τoff +IVM,rP2X4R N204A mutant; [1],5.2 ± 0.6 s
same,change in EC50 for ATP,P2X1R G288A,≈
same,change in EC50 for ATP,P2X2R D277A,D277A:: ≈[56]
same,change in EC50 for ATP,P2X4R N287A,"N287A: ≈[10], [52]"
